pKd: −log10 of the molar value.
Experiments:
[1] = Cytotoxicity in 3T3-L1 cells; assay type: cell-based; details: mouse, read-out: cell viability
Procedure: Prior to testing the PPARγ antagonist potential of isoquinolinoquinazolinones, their cytotoxicity in 3T3-L1 cells (normal cells) was examined. […] These two compounds were then tested for PPARγ inhibitory activity.

3T3-L1 cells = test: Expression of adipogenesis markers (immunoblotting, RT-PCR) in MDI-differentiated 3T3-L1 cells; assay type: cell-based, mouse; details: after MDI-induced differentiation
Procedure: PPARγ alone or together with CCAAT-enhancer-binding protein α (C/EBPα) regulates many adipocyte genes that are involved in creating and maintaining the adipocyte phenotype. To further analyze the effect of isoquinolinoquinazolinones on adipogenesis, the expression of the adipocyte marker genes (C/EBPα and PPARγ) was analyzed. The differentiation of 3T3-L1 cells into adipocytes was induced by incubating in MDI induction medium for 2 days followed by incubation in differentiation medium for an additional 6 days. After MDI-induced adipocyte differentiation of 3T3-L1 cells, adipogenic transcriptional factors were analyzed. The transcriptional factors C/EBPα and PPARγ were inhibited by 8n and 8o in terms of both protein (Fig. 2C,D) and RNA (Fig. 2E,F) levels.
Total cellular RNA was prepared using TRIzol reagent (Life Technologies) according to the manufacturer’s instructions. Random-primed cDNAs were synthesized from 1 μg of total RNA using Super-Script III First-Strand Synthesis System (Life Technologies). The following conditions were used for PCR: initial denaturation at 94 °C for 1 min; 28–30 cycles of denaturation at 94 °C for 30 s, annealing at a temperature optimized for each primer pair for 30 s, extension at 72 °C for 30 s; final extension at 72 °C for 5 min. […] RNA levels were quantified by image software, Multi Gauge, V3.0 (FUJIFILM).
At the end of differentiation, 3T3-L1 cells were washed with PBS and lysed in a lysis buffer (1% NP-40, 25 mM HEPES (pH 7.5), 10% glycerol, 150 mM NaCl, 25 mM NaF, 0.25% sodium deoxycholate, 1 mM EDTA, 1 mM Na3VO4, 10 μg/mL aprotinin, 10 μg/mL leupeptin, and 250 μM phenylmethanesulfonyl fluoride). […] Horseradish peroxidase-labeled secondary antibodies were detected and visualized using chemiluminescent western blotting reagent (Millipore). Protein expression levels were quantified by image software, Multi Gauge, V3.0 (FUJIFILM).

PPARγ2-LBD = biological target: T1, PPARγ2-LBD (Mus musculus, UniProt P37238); test: Surface plasmon resonance binding to immobilized PPARγ2-LBD; details: for pKd / kon / koff: SPR, 25 °C, PBS; for pKd: read-out: KD (equilibrium dissociation constant); for kon: read-out: ka (association rate constant); for koff: read-out: kd (dissociation rate constant)
T1 construct: mouse PPARγ2 (residues 230–505) were expressed as N-terminal GST-tagged proteins; made in house; host or cells: E. coli BL21(DE3)
T1 sequence (P37238 230-505): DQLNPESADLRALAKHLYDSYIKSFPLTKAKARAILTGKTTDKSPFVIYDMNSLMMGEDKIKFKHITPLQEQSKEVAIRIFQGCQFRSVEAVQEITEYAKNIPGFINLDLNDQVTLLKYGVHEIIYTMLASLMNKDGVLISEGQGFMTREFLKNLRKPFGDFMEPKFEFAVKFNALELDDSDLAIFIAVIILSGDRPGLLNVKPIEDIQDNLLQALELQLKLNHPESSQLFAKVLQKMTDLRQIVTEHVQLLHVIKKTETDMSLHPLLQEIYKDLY
Procedure: PPARγ2 protein was immobilized on the sensor chip, and the response (in resonance unit; RU) as a result of binding was continuously recorded and presented graphically as a function of time[25]. The association rate (ka also known as on rate (kon)), dissociation rate (kd also known as off rate (koff)), and equilibrium dissociation constant (KD) were calculated using the Scrubber 2 program (Table 2).
The recombinant ligand-binding domains (LBDs) of mouse PPARγ2 (residues 230–505) were expressed as N-terminal GST-tagged proteins using the pGEX4T3 vector. pGXE4T3-mPPARγ2-LBD plasmid was transfected into BL21(DE3) competent cells and the cells were grown in LB medium containing 50 μg/mL ampicillin at 37 °C to an O. D. 600 of 0.6–0.8. The expression of PPARγ2-LBD was induced by the addition of 0.2 mM isopropyl β-D-thiogalactoside (IPTG). After treatment for 24 h at 22 °C, the cells were harvested and disrupted using sonication buffer [25 mM HEPES (pH 7.5), 150 mM NaCl, 1% NP-40, 0.25% sodium deoxycholate, 10% glycerol, 25 mM NaF, 1 mM EDTA, 1 mM Na3VO4, 250 μM PMSF, 10 μg/mL leupeptin, and 10 μg/ml aprotinin]. The supernatant was applied to glutathione-Sepharose beads for 24 h at 4 °C. The bound GST fusion proteins were washed with the sonication buffer and eluted by elution buffer [25 mM glutathione, 50 mM Tris pH 8.8, 200 mM NaCl].
Immobilization of the protein on the hydrophilic carboxymethylated dextran matrix of the sensor chip (Reichert) was carried out using a standard primary amine coupling reaction. Free carboxyl groups on the surface were modified by injecting a mixture of 0.1 M 1-ethyl-3-(3-dimethylaminopropyl) carbodiimide hydrochloride and 0.05 M N-hydroxysuccinimide at a flow rate of 20 μL/min to generate a reactive succinimide ester surface. Baseline equilibration was achieved by flushing the chip with PBS buffer for 1–2 h. All of the SPR data was collected at 25 °C with PBS as running buffer at a constant flow of 30 μL/min. All the sensorgrams were processed by using automatic correction for nonspecific bulk refractive index effects. All the kinetic analyses of the binding to PPARγ2-LBD were calculated using the Scrubber2 program (Bio-Logic Software).

| pKd (PPARγ2-LBD) | kon (PPARγ2-LBD) | koff (PPARγ2-LBD) | binding affinity relative to GW9662 (less than) (PPARγ2-LBD; ratio of KD values) | binding affinity relative to rosiglitazone (more than) (PPARγ2-LBD; ratio of KD values) | SMILES | viability at 25 µM [1] | C/EBPα and PPARγ expression, protein and RNA levels (3T3-L1 cells) | mRNA expression of adiponectin and fatty acid synthase (FAS) (3T3-L1 cells) |
| --- | --- | --- | --- | --- | --- | --- | --- | --- |
|  |  |  |  |  | COc1cc2cc3n(c(=O)c2cc1OC)CNc1ccc(Cl)cc1-3 [Compound 8n, 2-Chloro-10,11-dimethoxy-5H-isoquinolino[2,3-c]quinazolin-8(6H)-one] | > 70% | inhibited |  |
| 3.83 | 24 M⁻¹ s⁻¹ | 0.00351 s⁻¹ | 37 folds | 4 folds | COc1cc2cc3n(c(=O)c2cc1OC)CNc1cc(Cl)ccc1-3 [Compound 8o, 3-Chloro-10,11-dimethoxy-5H-isoquinolino[2,3-c]quinazolin-8(6H)-one] | > 70% | inhibited | strongly reduced |
| 5.41 | 15.1 M⁻¹ s⁻¹ | 5.9e-05 s⁻¹ |  |  | O=C(Nc1ccccc1)c1cc([N+](=O)[O-])ccc1Cl [GW9662, reference compound] |  |  |  |
